From ChEMBL document CHEMBL4411307, “N,N'-diaryl-bishydrazones in a biphenyl platform: Broad spectrum antifungal agents” (Eur J Med Chem, 2019)
≈ marks a conversion by molar mass, not a printed value. Calls of active or inactive are those of the source. The rule behind the calls is not given here.

How the values were obtained:
[1] = system: Candida albicans; experiment: Antifungal activity against fluconazole/ITC-resistant Candida albicans ATCC 10231 measured after 48 hrs by CLSI M27-A3 protocol based method; format: functional; conditions: ATCC 10231, 48 h
[2] = system: Enterococcus; experiment: Antibacterial activity against vancomycin-resistant Enterococcus; format: functional, organism-based
[3] = system: Candida albicans; experiment: Antifungal activity against fluconazole/ITC-susceptible Candida albicans ATCC MYA-2310 measured after 48 hrs by CLSI M27-A3 protocol based method; format: functional; conditions: ATCC MYA-2310, 48 h
[4] = system: Aspergillus nidulans; experiment: Antifungal activity against Aspergillus nidulans ATCC 38163 measured after 48 hrs by CLSI M38-A2 protocol based method; format: functional; conditions: ATCC 38163, 48 h
[5] = system: Nakaseomyces glabratus; experiment: Antifungal activity against Candida glabrata ATCC 2001 measured after 48 hrs by CLSI M27-A3 protocol based method; format: functional; conditions: CBS 138, 48 h
[6] = system: Listeria monocytogenes; experiment: Antibacterial activity against Listeria monocytogenes; format: functional, organism-based
[7] = system: Staphylococcus aureus; experiment: Antibacterial activity against methicillin-resistant Staphylococcus aureus; format: functional, organism-based
[8] = system: Candida albicans; experiment: Antifungal activity against fluconazole/ITC-resistant Candida albicans ATCC 90819 measured after 48 hrs by CLSI M27-A3 protocol based method; format: functional; conditions: ATCC 90819, 48 h
[9] = system: Aspergillus terreus; experiment: Antifungal activity against Aspergillus terreus ATCC MYA-3633 measured after 48 hrs by CLSI M38-A2 protocol based method; format: functional; conditions: ATCC MYA-3633, 48 h
[10] = system: Candida parapsilosis; experiment: Antifungal activity against Candida parapsilosis ATCC 22019 measured after 48 hrs by CLSI M27-A3 protocol based method; format: functional; conditions: Lodderomyces parapsilosis, ATCC 22019, 48 h
[11] = system: Pichia kudriavzevii; experiment: Antifungal activity against Candida krusei ATCC 6258 measured after 48 hrs by CLSI M27-A3 protocol based method; format: functional; conditions: ATCC 6258, 48 h
[12] = system: Candida albicans; experiment: Antifungal activity against fluconazole/ITC-resistant Candida albicans ATCC MYA-1237 measured after 48 hrs by CLSI M27-A3 protocol based method; format: functional; conditions: ATCC MYA-1237, 48 h
[13] = system: Candida albicans; experiment: Antifungal activity against fluconazole/ITC-resistant Candida albicans ATCC MYA-1003 measured after 48 hrs by CLSI M27-A3 protocol based method; format: functional; conditions: ATCC MYA-1003, 48 h
[14] = system: Aspergillus flavus; experiment: Antifungal activity against Aspergillus flavus ATCC MYA-3631 measured after 48 hrs by CLSI M38-A2 protocol based method; format: functional; conditions: ATCC MYA-3631, 48 h
[15] = system: Candida albicans; experiment: Antifungal activity against fluconazole/ITC-resistant Candida albicans ATCC 64124 measured after 48 hrs by CLSI M27-A3 protocol based method; format: functional; conditions: ATCC 64124, 48 h
[16] = system: Candida albicans; experiment: Antifungal activity against fluconazole/ITC-susceptible Candida albicans ATCC MYA-2876 measured after 48 hrs by CLSI M27-A3 protocol based method; format: functional; conditions: ATCC MYA-2876, 48 h

Row | SMILES | MIC [1] [µg/mL] | Activity [2] | MIC [3] [µg/mL] | MIC [4] [µg/mL] | MIC [5] [µg/mL] | Activity [6] | Activity [7] | MIC [8] [µg/mL] | MIC [9] [µg/mL] | MIC [10] [µg/mL] | MIC [11] [µg/mL] | MIC [12] [µg/mL] | MIC [13] [µg/mL] | MIC [14] [µg/mL] | MIC [15] [µg/mL] | MIC [16] [µg/mL]
1 | Clc1ccc(N/N=C/c2ccc(-c3cccc(/C=N/Nc4ccc(Cl)cc4)c3)cc2)cc1 | 7.8 (≈ 17 µM) | inactive | 31.3 (≈ 68.1 µM) | > 31.3 | 15.6 (≈ 34 µM) | inactive | inactive | 15.6 (≈ 34 µM) | > 31.3 | 3.9 (≈ 8.49 µM) | 31.3 (≈ 68.1 µM) | 15.6 (≈ 34 µM) | 3.9 (≈ 8.49 µM) | > 31.3 | 7.8 (≈ 17 µM) | 15.6 (≈ 34 µM)
2 | CC[C@H](C)C[C@H](C)CCCCCCCCC(=O)N[C@H]1C[C@@H](O)[C@@H](NCCN)NC(=O)[C@@H]2[C@@H](O)CCN2C(=O)[C@H]([C@H](O)CCN)NC(=O)[C@H]([C@H](O)[C@@H](O)c2ccc(O)cc2)NC(=O)[C@@H]2C[C@@H](O)CN2C(=O)[C@H]([C@@H](C)O)NC1=O [CASPOFUNGIN] | 0.975 (≈ 0.892 µM) |  | 0.12 (≈ 0.11 µM) | > 31.3 | 0.06 (≈ 0.0549 µM) |  |  | 0.12 (≈ 0.11 µM) | > 31.3 | 1.95 (≈ 1.78 µM) | 0.48 (≈ 0.439 µM) | 0.24 (≈ 0.22 µM) | 0.48 (≈ 0.439 µM) | > 31.3 | 0.24 (≈ 0.22 µM) | 0.06 (≈ 0.0549 µM)
3 | Fc1cc(F)cc(N/N=C/c2ccc(-c3ccc(/C=N/Nc4cc(F)cc(F)c4)cc3)cc2)c1 | 15.6 (≈ 33.7 µM) | inactive | > 31.3 | > 31.3 | > 31.3 | inactive | inactive | > 31.3 | > 31.3 | > 31.3 | > 31.3 | > 31.3 | > 31.3 | > 31.3 | > 31.3 | > 31.3
4 | Fc1ccc(N/N=C/c2ccc(-c3ccc(/C=N/Nc4ccc(F)cc4F)cc3)cc2)c(F)c1 | 7.8 (≈ 16.9 µM) | inactive | > 31.3 | > 31.3 | > 31.3 | inactive | inactive | 31.3 (≈ 67.7 µM) | > 31.3 | > 31.3 | > 31.3 | > 31.3 | > 31.3 | > 31.3 | > 31.3 | > 31.3
5 | Fc1cccc(N/N=C/c2ccc(-c3cccc(/C=N/Nc4cccc(F)c4F)c3)cc2)c1F | > 31.3 | inactive | > 31.3 | > 31.3 | > 31.3 | inactive | inactive | > 31.3 | > 31.3 | > 31.3 | > 31.3 | > 31.3 | > 31.3 | > 31.3 | > 31.3 | > 31.3
6 | Fc1ccccc1N/N=C/c1ccc(-c2ccc(/C=N/Nc3ccccc3F)cc2)cc1 | 3.9 (≈ 9.14 µM) | inactive | > 31.3 | 31.3 (≈ 73.4 µM) | > 31.3 | inactive | inactive | 31.3 (≈ 73.4 µM) | > 31.3 | > 31.3 | 3.9 (≈ 9.14 µM) | > 31.3 | 15.6 (≈ 36.6 µM) | > 31.3 | > 31.3 | 15.6 (≈ 36.6 µM)
7 | N#Cc1ccc(N/N=C/c2ccc(-c3ccc(/C=N/Nc4ccc(C#N)cc4)cc3)cc2)cc1 | > 31.3 | inactive | > 31.3 | > 31.3 | > 31.3 | inactive | inactive | > 31.3 | 31.3 (≈ 71.1 µM) | > 31.3 | > 31.3 | > 31.3 | 31.3 (≈ 71.1 µM) | > 31.3 | > 31.3 | > 31.3
8 | Brc1ccc(N/N=C/c2ccc(-c3ccc(/C=N/Nc4ccc(Br)cc4)cc3)cc2)cc1 | > 31.3 | inactive | > 31.3 | > 31.3 | > 31.3 | inactive | inactive | > 31.3 | > 31.3 | 31.3 (≈ 57.1 µM) | > 31.3 | > 31.3 | > 31.3 | > 31.3 | > 31.3 | > 31.3
9 | COc1cccc(N/N=C(\C)c2ccc(-c3ccc(/C(C)=N/Nc4cccc(OC)c4)cc3)cc2)c1 | 0.98 (≈ 2.05 µM) | inactive | 15.6 (≈ 32.6 µM) | > 31.3 | 15.6 (≈ 32.6 µM) | inactive | inactive | 31.3 (≈ 65.4 µM) | > 31.3 | 15.6 (≈ 32.6 µM) | 0.98 (≈ 2.05 µM) | 31.3 (≈ 65.4 µM) | 3.9 (≈ 8.15 µM) | > 31.3 | 0.98 (≈ 2.05 µM) | 15.6 (≈ 32.6 µM)
